The text below walks through data of patent publication EP0010358A1, “Beta-lactam compounds, processes for their preparation, compositions containing them, intermediates of use in their preparation and methods for the production thereof” (GLAXO GROUP LIMITED, priority 1978, dated 1980).

In brackets after ≈: the same amount, converted by molar mass. Where two headings read alike, the source gives them in different places.

What all share (assay): Determination of Minimum Inhibitory Concentrations (MIC), agar dilution
Type in all cases: cell-based
A general note: In agar dilution, organisms are placed on agar that contains the substance at set levels.

One assay concerns Micrococcus Sp 1810E. The following applies: SP1810E. On the procedure: (§1) Serial two-fold dilutions of freshly prepared test solutions were made into Oxoid No. 1 Nutrient agar with or without added enrichment and poured into petri dishes. Plates were inoculated with a multipoint inoculator with inoculum containing approximately 10^5 colony forming units of the organisms shown in the following Table, all of which organisms are clinical isolates. The MIC, quoted in the Table as µg/ml, was read after 18 hours incubation at 37°C as the lowest concentration which inhibited growth.

For a further assay, the system named is K. aerogenes 1522E. As to conditions: Klebsiella aerogenes. Here is the method:
as §1

Another assay concerns Staph. aureus 853E. The following applies: Staphylococcus aureus. Here is the method:
as §1

The subject of the next assay is E. coli 851E. The following applies: Escherichia coli. On the procedure:
as §1

The test system of another assay is E. cloacae 1051E. As to conditions: Enterobacter cloacae. On the procedure:
as §1

Another assay relates to E. cloacae 1321E. The following applies: Enterobacter cloacae. Here is the method: as §1
The next assay has as its system H. influenzae 1184E. The following applies: Haemophilus influenzae. Here is the method:
as §1

For another assay, the system named is S. marcescens 1324E. As to conditions: Serratia marcescens. On the procedure:
as §1

The mark [1] stands for this setting: Micrococcus Sp 1810E, clinical isolate, Oxoid No. 1 Nutrient agar, approx. 10^5 colony forming units, 18 hours at 37°C, read-out: MIC.
[2] abbreviates: K. aerogenes 1522E, clinical isolate, Oxoid No. 1 Nutrient agar, approx. 10^5 colony forming units, 18 hours at 37°C, read-out: MIC.
[3] abbreviates: Staph. aureus 853E, clinical isolate, Oxoid No. 1 Nutrient agar, approx. 10^5 colony forming units, 18 hours at 37°C, read-out: MIC.
Where [4] appears, read: E. coli 851E, clinical isolate, Oxoid No. 1 Nutrient agar, approx. 10^5 colony forming units, 18 hours at 37°C, read-out: MIC.
Where [5] appears, read: E. cloacae 1051E, clinical isolate, Oxoid No. 1 Nutrient agar, approx. 10^5 colony forming units, 18 hours at 37°C, read-out: MIC.
Setting [6] is: E. cloacae 1321E, clinical isolate, Oxoid No. 1 Nutrient agar, approx. 10^5 colony forming units, 18 hours at 37°C, read-out: MIC.
Setting [7] is: H. influenzae 1184E, clinical isolate, Oxoid No. 1 Nutrient agar, approx. 10^5 colony forming units, 18 hours at 37°C, read-out: MIC.
Setting [8] is: S. marcescens 1324E, clinical isolate, Oxoid No. 1 Nutrient agar, approx. 10^5 colony forming units, 18 hours at 37°C, read-out: MIC.

For `O=CNCCC1=C(C(=O)O)N2C(=O)CC2S1` (racemic) [Example 4, (5RS)-2-(2-Formamidoethyl)pen-2-em-3-carboxylic acid], the MIC in the assay on Micrococcus Sp 1810E (setting [1]) amounted to 0.1 µg/mL (≈ 0.413 µM); with K. aerogenes 1522E (setting [2]), 2 µg/mL (≈ 8.26 µM); in the assay on Staph. aureus 853E (setting [3]), 2 µg/mL (≈ 8.26 µM); in the assay with E. coli 851E (setting [4]), 1 µg/mL (≈ 4.13 µM); in the assay on E. cloacae 1051E (setting [5]), 1 µg/mL (≈ 4.13 µM); with E. cloacae 1321E (setting [6]), 1 µg/mL (≈ 4.13 µM). For the same compound, the MIC in the assay with H. influenzae 1184E (setting [7]) and in the assay with S. marcescens 1324E (setting [8]) was 2 µg/mL (≈ 8.26 µM) each time.
Turning to `CC(=O)NCCC1=C(C(=O)[O-])N2C(=O)CC2S1.[K+]` (racemic) [Example 7, Potassium (5RS)-2-(2-acetamidoethyl)pen-2-em-3-carboxylate], the MIC was 2 µg/mL in the assay with Micrococcus Sp 1810E (Micrococcus, 18 h); 8 µg/mL with K. aerogenes 1522E (1522E, 18 h); 2 µg/mL with Staph. aureus 853E (853E, 18 h); 8 µg/mL with E. coli 851E (851E, 18 h); 16 µg/mL with E. cloacae 1051E (1051E, 18 h); 4 µg/mL in the assay on E. cloacae 1321E (1321E, 18 h). The MIC with H. influenzae 1184E (1184E, 18 h) worked out at 16 µg/mL; in the assay with S. marcescens 1324E (1324E, 18 h), 31 µg/mL.
In the case of `CNC(=O)NCCC1=C(C(=O)O)N2C(=O)CC2S1` (racemic) [Example 10, Potassium (5RS)-2-(2-N-methylureidoethyl)pen-2-em-3-carboxylate], the MIC in the assay with Micrococcus Sp 1810E (setting [1]) was 1 µg/mL; in the assay on K. aerogenes 1522E (setting [2]), 8 µg/mL; with Staph. aureus 853E (setting [3]) it was 62 µg/mL; in the assay on E. coli 851E (setting [4]) it was 8 µg/mL; with E. cloacae 1051E (setting [5]), 16 µg/mL; in the assay with E. cloacae 1321E (setting [6]) it was 8 µg/mL. In addition, the MIC in the assay on H. influenzae 1184E (setting [7]) and with S. marcescens 1324E (setting [8]) was 8 µg/mL each time.
As to `O=C(NCCC1=C(C(=O)O)N2C(=O)CC2S1)Nc1ccccc1` (racemic) [Example 11, Potassium (5RS)-2-(2-N-phenylureidoethyl)pen-2-em-3-carboxylate], the MIC with Micrococcus Sp 1810E (setting [1]) was 0.2 µg/mL; with K. aerogenes 1522E (setting [2]), 2 µg/mL; with Staph. aureus 853E (setting [3]), 0.2 µg/mL; in the assay with E. coli 851E (setting [4]), 2 µg/mL; in the assay with E. cloacae 1051E (setting [5]) it was 16 µg/mL; with E. cloacae 1321E (setting [6]) it was 8 µg/mL. For the same compound, the MIC with H. influenzae 1184E (setting [7]) worked out at 16 µg/mL; with S. marcescens 1324E (setting [8]), 8 µg/mL.
